Measurements as given in patent US20230002346A1, “NEW COMPOUNDS AND METHODS” (BenevolentAl Bio Limited, priority 2019, published 2023).
Converted amounts (≈) assume the structure as drawn.

Experiments:
[1] = Kinetic aqueous solubility assay; assay type: physicochemical; conditions: aqueous buffer, kinetic from dmso stock, 0.05M potassium phosphate buffer pH 7.4, 250 μM spike, RT
Outline: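 Compound added from DMSO stock into 0.05M potassium phosphate buffer pH 7.4 at 250 μM final, shaken 30 min at RT to induce precipitation (n=2). Appearance noted visually. Filtrate concentration determined by UV peak area against calibration standards.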

[2] = tested on: Salmonella typhimurium, strains TA98 and TA100; experiment: Ames assay (Bacterial Reverse Mutation Test); assay type: cell-based; conditions: TA98 and TA100, presence and absence of S-9 mix, up to 5000 μg/plate
Protocol: Examples 50, 52 and 54 were tested, in vitro, for their ability to induce mutations in 2 histidine dependent auxotrophic mutants of Salmonella typhimurium, strains TA98 and TA100. The mutation screen was conducted using the plate incorporation method and was performed in both the presence and absence of S-9 mix (a liver post-mitochondrial fraction derived from the livers of Aroclor 1254 treated rats). The bacteria were exposed to the test items dissolved in DMSO, which was also the negative Control. The test items were tested up to the regulatory maximum dose level. The dose levels used were 5, 15, 50, 150, 500, 1500 or 5000 μg/plate, unless the highest treatment level of the test items was limited by solubility, or toxicity against the background bacterial lawn. Dose levels were expressed in terms of the free base.
There were no increases of 2-fold or greater in revertant numbers compared with negative Control values in either strain at any dose level in the presence or absence of S-9 mix, so Examples 50, 52 and 54 were not mutagenic in the Bacterial Reverse Mutation (i.e. Ames) Test under the conditions of this screen.

[3] = Brain to plasma (B:P) ratio in rat; assay type: in vivo, Sprague Dawley Rats; conditions: male, Sprague Dawley, iv, i.v. 0.5 mg/kg, 5% NMP in 30% HPBC in water, timepoints averaged 0.17-1 h
[4] = Rat PK profile (bioavailability, clearance, half-life); assay type: in vivo; conditions: male, Sprague Dawley, plasma, i.v. dose 0.5 mg/kg
Protocol: Male Sprague Dawley Rats 300-350 g (Charles River, UK) were group housed, n=3, under a 12 h light/dark cycle with food and water available ad libitum. At 17:00 on the day prior to dosing all food was removed. On the day of dosing animals were weighed, tail marked and dosed via oral gavage with compound at 3 mg/kg in a volume of 5 mL/kg. Animals were culled at 30 min, 1 h and 4 h post dose via intra-peritoneal administration of pentobarbital. Post mortem blood was withdrawn via cardiac puncture, and briefly stored in K2 EDTA blood tubes on ice before being spun at 14,000 g for 4 min at 4° C. Plasma was withdrawn into a 96 well plate, placed on dry ice and stored at −80° C. Brains were quickly dissected and placed on dry ice before storage at −80° C. Bioanalysis of plasma and brain samples is performed as detailed below. Methods were prepared with guidance from industry standard documents.^i,ii
A 10 mM DMSO stock is used to prepare spiking solutions of test compound in the range of 10-100,000 ng/mL in diluent (MeCN:water, 1;1). Calibration lines are prepared in control male Sprague-Dawley Rat plasma at known concentrations in the range of 1-10000 ng/mL by spiking 2.5 μL of calibration spiking solution into 25 μL control plasma. Experimental samples are thawed to RT and 25 μL aliquots are extracted alongside the calibration lines using protein precipitation (agitation for at least 5 min at RT with 400 μL of MeCN containing 25 ng/mL tolbutamide as an internal standard). Protein precipitates are separated from the extracted test compound by centrifugation at 4000 rpm for 5 min, 4° C. The resulting supernatants are diluted in a ratio of 1:2 with a relevant diluent (e.g. 0.1% formic acid in water or 1:1 MeOH:water). Samples are analysed by UPLC-MS/MS on either an API6500 QTrap or Waters 30 TQS mass spectrometer using previously optimised analytical MRM (multiple reaction monitoring) methods, specific to the test compound. The concentration of test compound in isolated samples is determined following analysis of the samples against the two replicates of the calibration line, injected before and after the sample set with an appropriate regression and weighting used. Only samples within 20% of the expected test concentration are included in the calibration line and any samples that fall outside of the limits of the calibration line will be deemed to be less than or above the limit of quantification (LLoQ/ALoQ).
Pharmacokinetic parameters such as bioavailability (% F), clearance (CL), half-life (T½) and volume of distribution are calculated by non-compartmental analysis using Phoenix Winnonlin 64 software (build 8.0). The bioavailability was calculated from p.o. dosed rats, whereas the clearance and half-life were calculated from i.v. dosed rats. Briefly, in vivo plasma concentrations, timepoints and dose values are imported into the software in a compatible format. Plasma concentration for each animal is plotted against time, and the elimination phase identified and selected. The area under the curve for each plot is calculated using a linear trapezoidal linear interpolation from which pharmacokinetic parameters can subsequently be determined. […] Compounds of the invention have much improved clearance (CL) and half-life (T½) compared to the reference examples.

SMILES: O=C(Nc1ccc(OC(F)(F)Cl)cc1)c1ccc(=O)n(-c2cncc(F)c2)c1 [Example 54, N-[4-[Chloro(difluoro)methoxy]phenyl]-1-(5-fluoro-3-pyridyl)-6-oxo-pyridine-3-carboxamide]
- solubility at 30 min [1]: 170 µM (≈ 69.7 µg/mL)
- mutagenicity in the Bacterial Reverse Mutation (Ames) Test [2]: not mutagenic
- Kp [3]: 0.53
- clearance ([4]; iv): 4 mL/min/kg
- half-life ([4]; iv, read-out: T½ (converted)): 7.6 h
- bioavailability ([4]; po, p.o. dose 3 mg/kg): 97%
